Data from ChEMBL document CHEMBL1145235, “Optimization of pyrrolidinone based HIV protease inhibitors” (Bioorg Med Chem Lett, 2005).

What was measured:
[1] = target: Human immunodeficiency virus type 1 protease (Human immunodeficiency virus 1, UniProt Q72874); experiment: Inhibition constant against HIV Protease
[2] = test system: MT4; experiment: Antiviral inhibitory concentration against human immunodeficiency virus type 1 in MT-4 cell culture; format: functional, cell-based

Row | Ki [1] | SMILES | IC50 [2]
1 | 0.02 nM | COCCOCCOc1ccc(C[C@H](CC(=O)CN2C(=O)[C@@H](Cc3ccccc3)C[C@@H]2Cc2ccccc2)C(=O)NC2c3ccccc3C[C@H]2O)cc1 (some centres undefined) | 93 nM
2 | 0.05 nM | CN1CCN(C(=O)COc2ccc(C[C@H](CC(=O)CN3C(=O)[C@@H](Cc4ccccc4)C[C@@H]3Cc3ccccc3)C(=O)NC3c4ccccc4C[C@H]3O)cc2)CC1 (some centres undefined) | 130 nM
3 | 0.13 nM | O=C(C[C@@H](Cc1ccccc1)C(=O)NC1c2ccccc2C[C@H]1O)CN1C(=O)[C@@H](Cc2ccccc2)C[C@@H]1Cc1ccc(OCc2ccccc2)cc1 (some centres undefined) | 550 nM
4 | 0.14 nM | O=C(C[C@@H](Cc1ccc(OCCN2CCOCC2)cc1)C(=O)NC1c2ccccc2C[C@H]1O)CN1C(=O)[C@@H](Cc2ccccc2)C[C@@H]1Cc1ccccc1 (some centres undefined) | 83 nM
5 | 0.07 nM | NC(=O)COc1ccc(C[C@H](CC(=O)CN2C(=O)[C@@H](Cc3ccccc3)C[C@@H]2Cc2ccccc2)C(=O)NC2c3ccccc3C[C@H]2O)cc1 (some centres undefined) | 360 nM
6 | 0.05 nM | O=C(C[C@@H](Cc1ccccc1)C(=O)NC1c2ccccc2C[C@H]1O)CN1C(=O)[C@@H](Cc2ccccc2)C[C@@H]1Cc1ccccc1 (some centres undefined) | 720 nM
7 | 0.3 nM | O=C(C[C@@H](Cc1ccccc1)C(=O)NC1c2ccccc2C[C@H]1O)CN1C(=O)[C@@H](Cc2ccccc2)C[C@@H]1Cc1ccc(OCCO)cc1 (some centres undefined) | 480 nM
8 | 0.07 nM | O=C(C[C@@H](Cc1ccc(OCc2ccccn2)cc1)C(=O)NC1c2ccccc2C[C@H]1O)CN1C(=O)[C@@H](Cc2ccccc2)C[C@@H]1Cc1ccccc1 (some centres undefined) | 380 nM
9 | 0.11 nM | O=C(C[C@@H](Cc1ccc(OCc2ccccc2)cc1)C(=O)NC1c2ccccc2C[C@H]1O)CN1C(=O)[C@@H](Cc2ccccc2)C[C@@H]1Cc1ccccc1 (some centres undefined) | 920 nM
10 | 0.06 nM | O=C(C[C@@H](Cc1ccc(O)cc1)C(=O)NC1c2ccccc2C[C@H]1O)CN1C(=O)[C@@H](Cc2ccccc2)C[C@@H]1Cc1ccccc1 (some centres undefined) | 320 nM
11 | 1.3 nM | O=C(C[C@@H](Cc1ccccc1)C(=O)NC1c2ccccc2C[C@H]1O)CN1C(=O)[C@@H](Cc2ccccc2)C[C@@H]1Cc1ccc(OCCN2CCOCC2)cc1 (some centres undefined) | 960 nM
12 | 0.1 nM | O=C(C[C@@H](Cc1ccccc1)C(=O)NC1c2ccccc2C[C@H]1O)CN1C(=O)[C@@H](Cc2ccccc2)C[C@@H]1Cc1ccc(OCC(=O)N2CCOCC2)cc1 (some centres undefined) | 200 nM
13 | 0.02 nM | O=C(C[C@@H](Cc1ccc(OCC(=O)N2CCOCC2)cc1)C(=O)NC1c2ccccc2C[C@H]1O)CN1C(=O)[C@@H](Cc2ccccc2)C[C@@H]1Cc1ccccc1 (some centres undefined) | 63 nM
14 |  | O=C(C[C@@H](Cc1ccccc1)C(=O)NC1c2ccccc2C[C@H]1O)CN1C(=O)[C@@H](Cc2ccccc2)C[C@@H]1Cc1ccc(O)cc1 (some centres undefined) | 200 nM
15 | 0.02 nM | O=C(C[C@@H](Cc1ccc(OCCO)cc1)C(=O)NC1c2ccccc2C[C@H]1O)CN1C(=O)[C@@H](Cc2ccccc2)C[C@@H]1Cc1ccccc1 (some centres undefined) | 94 nM
